The target in data set [1] is Dopamine receptors; D2 & D4 (Homo sapiens) (UniProt P14416+P21917). As to the kind of experiment: Ratio of dopamine D2/D4 receptor binding. The format is protein assay.
In another data set the target is D(2) dopamine receptor (Homo sapiens, UniProt P14416). As to the kind of experiment: Displacement of [3H]spiperone from human dopamine D2 receptor in CHO cells. Format: cell-based.
A further data set deals with D(3) dopamine receptor (Homo sapiens, UniProt P35462). Briefly: Displacement of [3H]spiperone from human dopamine receptor subtype hD3 expressed in CHO cells. Format: cell-based.
The next data set concerns the target T1, D(4) dopamine receptor (Homo sapiens, UniProt P21917).
T1 sequence (P21917 whole entry): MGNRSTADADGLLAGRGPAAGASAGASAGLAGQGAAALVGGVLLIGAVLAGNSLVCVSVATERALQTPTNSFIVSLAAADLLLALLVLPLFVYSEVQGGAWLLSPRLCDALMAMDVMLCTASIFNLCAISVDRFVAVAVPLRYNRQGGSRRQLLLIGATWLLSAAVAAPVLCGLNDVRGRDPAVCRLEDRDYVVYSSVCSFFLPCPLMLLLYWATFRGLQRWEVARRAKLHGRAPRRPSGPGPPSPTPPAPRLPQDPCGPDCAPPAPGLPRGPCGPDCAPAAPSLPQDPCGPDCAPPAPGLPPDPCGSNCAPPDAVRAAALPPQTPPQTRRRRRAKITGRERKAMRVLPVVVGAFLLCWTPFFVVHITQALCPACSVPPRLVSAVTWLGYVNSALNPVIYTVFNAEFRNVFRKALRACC
As to the kind of experiment: Displacement of [3H]spiperone from human dopamine receptor subtype hD4 expressed in HEK293 cells. Format: cell-based. On the technique in general: Displacement assays read how much labelled ligand stays bound in the presence of the test substance.

Data set [2] relates to Rattus norvegicus. Briefly: Plasma clearance was evaluated in rat at an intravenous dose of 3 mg/kg and peroral dose of 5 mg/kg. Format: ADME, organism-based. The note with it: in vivo.
The nature of data set [3]: Maximum concentration in plasma (Cmax) was evaluated in rat at an intravenous dose of 3 mg/kg and peroral dose of 5 mg/kg. The format is ADME, organism-based. The note with it: po.
In data set [4] the test system is Rattus norvegicus. Briefly: Volume of distribution (Vss) was evaluated in rat at an intravenous dose of 3 mg/kg and peroral dose of 5 mg/kg. Format: ADME, organism-based. The note with it: in vivo.
The nature of data set [5]: Bioavailability was evaluated in rhesus monkey at an intravenous dose of 1 mg/kg and peroral dose of 1 mg/kg. The note with it: in vivo, po, read-out: Bioavailabiility. Format: ADME, organism-based, Macaca mulatta.
A short description of data set [6]: Maximum concentration in plasma (Cmax) was evaluated in rhesus monkey at an intravenous dose of 1 mg/kg and peroral dose of 1 mg/kg. The note with it: po. Format: ADME, organism-based, Macaca mulatta.
Data set [7] can be described thus: Half life was evaluated in rat at an intravenous dose of 3 mg/kg and peroral dose of 5 mg/kg. The format is ADME, organism-based. The note with it: in vivo.
Another data set deals with Rhesus monkey. As to the kind of experiment: Volume of distribution (Vss) was evaluated in rhesus monkey at an intravenous dose of 1 mg/kg and peroral dose of 1 mg/kg. Format: ADME, organism-based, Macaca mulatta. The note with it: in vivo.
A short description of data set [8]: Half life was evaluated in rhesus monkey at an intravenous dose of 1 mg/kg and peroral dose of 1 mg/kg. The format is ADME, organism-based, Macaca mulatta. The note with it: in vivo.
A short description of data set [9]: Bioavailability was evaluated in rat at an intravenous dose of 3 mg/kg and peroral dose of 5 mg/kg. Format: ADME, organism-based. The note with it: in vivo, po, read-out: Bioavailabiility.

By Ki is commonly meant a dissociation constant, usually derived from enzyme kinetics or from competition with a known ligand. Broadly, the Cmax is the peak of the concentration-time curve. What is called half-life is the time needed for the level to fall by half in the phase considered.

A value given as a limit tells only on which side of the number the result lay.

Sequence of D(2) dopamine receptor (P14416 whole entry): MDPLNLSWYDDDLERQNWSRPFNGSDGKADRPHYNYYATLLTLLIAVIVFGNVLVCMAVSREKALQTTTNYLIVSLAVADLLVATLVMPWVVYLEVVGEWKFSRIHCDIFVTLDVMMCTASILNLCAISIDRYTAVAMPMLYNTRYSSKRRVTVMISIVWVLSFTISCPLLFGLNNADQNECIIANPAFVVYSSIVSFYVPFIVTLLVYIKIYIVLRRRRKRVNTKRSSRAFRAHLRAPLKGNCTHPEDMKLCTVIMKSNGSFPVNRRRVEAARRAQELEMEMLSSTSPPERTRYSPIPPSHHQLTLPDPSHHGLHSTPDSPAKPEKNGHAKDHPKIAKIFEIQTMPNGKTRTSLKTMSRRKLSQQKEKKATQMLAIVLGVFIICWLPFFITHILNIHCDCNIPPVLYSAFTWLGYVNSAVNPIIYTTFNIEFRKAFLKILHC
Sequence of Dopamine receptors; D2 & D4 (Homo sapiens) (P14416 whole entry, looked up, one chain of several): as the sequence (P14416 whole entry) above
Sequence of D(3) dopamine receptor (P35462 whole entry): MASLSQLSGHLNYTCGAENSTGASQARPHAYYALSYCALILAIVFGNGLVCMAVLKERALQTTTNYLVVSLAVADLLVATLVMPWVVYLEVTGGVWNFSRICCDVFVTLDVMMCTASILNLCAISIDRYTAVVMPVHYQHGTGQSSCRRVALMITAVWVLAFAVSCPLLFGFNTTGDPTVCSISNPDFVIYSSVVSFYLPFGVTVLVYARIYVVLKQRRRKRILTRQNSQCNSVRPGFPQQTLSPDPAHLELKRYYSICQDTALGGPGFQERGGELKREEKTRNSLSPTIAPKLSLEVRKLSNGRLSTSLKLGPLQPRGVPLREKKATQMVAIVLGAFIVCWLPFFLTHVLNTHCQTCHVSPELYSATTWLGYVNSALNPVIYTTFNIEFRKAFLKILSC

For `C1=C(c2nc3ccccc3[nH]2)CCN(Cc2ccccc2)C1`, the Ratio in [1] stood at 15. Moreover, the results for the Ki at D(2) dopamine receptor, on D(3) dopamine receptor and at D(4) dopamine receptor were 1400 nM, 4400 nM and 94 nM, respectively.

As for `Clc1cccc(CN2CC=C(c3nc4ccccc4s3)CC2)c1`, the Ratio in [1] is 42. Further, the Ki was 340 nM at D(2) dopamine receptor, 630 nM on D(3) dopamine receptor and 8.1 nM at D(4) dopamine receptor.

On to `Clc1ccc(CN2CC=C(c3nc4cc(Cl)ccc4[nH]3)CC2)cc1`, for which the Ratio in data set [1] turned out to be 33. Moreover, the Ki at D(2) dopamine receptor came out at 330 nM; at D(3) dopamine receptor, 900 nM; at D(4) dopamine receptor, 10 nM.

Regarding `Clc1ccccc1CN1CC=C(c2nc3ccccc3s2)CC1`, the Ratio in data set [1] was above 23. Besides, the Ki on D(2) dopamine receptor is above 2000 nM; at D(3) dopamine receptor, 1400 nM; on D(4) dopamine receptor it was 87 nM.

Consider `Clc1ccc2oc(C3=CCN(Cc4ccccc4)CC3)nc2c1`, for which the Ratio in [1] was above 100. In addition, the Ki on D(2) dopamine receptor is above 1800 nM; on D(3) dopamine receptor it was 1600 nM; at D(4) dopamine receptor, 17 nM.

Turning to `Clc1ccc2[nH]c(C3=CCN(Cc4ccccc4)CC3)nc2c1`, the Ratio in data set [1] is 23. Moreover, the figures for the Ki on D(2) dopamine receptor, at D(3) dopamine receptor and on D(4) dopamine receptor were 590 nM, 2900 nM and 26 nM, respectively.

In the case of `Clc1ccc(CN2CC=C(c3nc4cc(Cl)ccc4o3)CC2)cc1`, in data set [1], the Ratio was above 200. For the same compound, the Ki on D(2) dopamine receptor was above 1700 nM; on D(3) dopamine receptor, above 4500 nM; at D(4) dopamine receptor it was 8.4 nM.

In the case of `Clc1ccc2sc(C3=CCN(Cc4ccccc4)CC3)nc2c1`, in [1], the Ratio is above 36. In addition, the Ki at D(2) dopamine receptor was above 1600 nM; on D(3) dopamine receptor, 1800 nM; on D(4) dopamine receptor it was 44 nM.

Turning to `C1=C(c2nc3ccccc3o2)CCN(Cc2ccccc2)C1`, the Ratio in data set [1] worked out at 3. Moreover, the Ki at D(2) dopamine receptor was 240 nM; at D(3) dopamine receptor, 4500 nM; at D(4) dopamine receptor, 97 nM.

As to `C1=C(c2nc3ccccc3s2)CCN(Cc2ccccc2)C1`, the Ratio in [1] is 120. For the same compound, the values for the Ki at D(2) dopamine receptor, at D(3) dopamine receptor and on D(4) dopamine receptor were 600 nM, 560 nM and 5 nM, respectively.

Take `Clc1ccc(CN2CC=C(c3nc4ccccc4[nH]3)CC2)cc1`: the Ratio in data set [1] stood at 10. Moreover, the Ki on D(2) dopamine receptor amounted to 670 nM; at D(3) dopamine receptor, 1600 nM; at D(4) dopamine receptor, 68 nM.

In the data set on Rattus norvegicus [2], `Clc1ccc(CN2CC=C(c3nc4ccccc4s3)CC2)cc1` came in with a Plasma clearance of 39 Clp. Further, the Cmax in data set [3] came to 97 ng/mL; in data set [6] it was 23 ng/mL. For the same compound, the Ratio in [1] is above 1000. Also, the Vss with Rattus norvegicus [4] amounted to 3.81 kg⁻¹; with Rhesus monkey, 2.5 kg⁻¹. Besides, the bioavailability in data set [5] was 9%; in [9], 17%. The half-life in data set [7] is 3.1 h; in data set [8], 4.7 h. In addition, the values for the Ki on D(2) dopamine receptor, on D(3) dopamine receptor and on D(4) dopamine receptor were above 1600 nM, above 4400 nM and 1.3 nM, respectively.

Regarding `Clc1ccc(CN2CC=C(c3nc4cc(Cl)ccc4s3)CC2)cc1`, the Ratio in data set [1] came to 97. The results for the Ki on D(2) dopamine receptor, on D(3) dopamine receptor and on D(4) dopamine receptor were 2000 nM, 660 nM and 21 nM, respectively.

The record behind these values is ChEMBL document CHEMBL1130515, “4-Heterocyclyl tetrahydropyridines as selective ligands for the human dopamine D4 receptor” (Bioorg Med Chem Lett, 1997).
